Values joined by “and” are separate entries in the source; they are usually repeats but may differ in a detail not shown here. Equal entries are not always repeated.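 Following 48 hours of exposure in 96-well plates, responses at five concentrations were used to interpolate endpoints linearly. The concentration for 50% growth inhibition is given as GI50. TGI: total growth inhibition.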 Active and inactive are the calls of the source. Rule as the data show it: active = GI50 below about 0.43 µM; inactive = the rest.
Legend:
Experiment in all cases: growth of human tumour cells (NCI), 48 h
[1] = system: U251 CNS
[2] = system: SR leukemia
[3] = system: ACHN renal
[4] = system: MALME-3M melanoma
[5] = system: CAKI-1 renal
[6] = system: COLO 205 colon
[7] = system: SNB-78 CNS
[8] = system: KM12 colon
[9] = system: RPMI-8226 leukemia
[10] = system: OVCAR-5 ovarian
[11] = system: MOLT-4 leukemia
[12] = system: NCI-H23 lung
[13] = system: SF-268 CNS
[14] = system: DLD-1 colon
[15] = system: UACC-257 melanoma
[16] = system: LOX IMVI melanoma
[17] = system: HOP-62 NSCLC
[18] = system: EKVX NSCLC
[19] = system: HOP-18 NSCLC
[20] = system: HT29 colon
[21] = system: UO-31 renal
[22] = system: SF-539 CNS
[23] = system: 786-0 renal
[24] = system: M19-MEL melanoma
[25] = system: NCI-H226 lung
[26] = system: OVCAR-3 ovarian
[27] = system: SN12C renal
[28] = system: IGROV1 ovarian
[29] = system: HOP-92 NSCLC
[30] = system: A549 NSCLC
[31] = system: SF-295 CNS
[32] = system: HCT-15 colon
[33] = system: HCC-2998 colon
[34] = system: SK-MEL-2 melanoma
[35] = system: A498 renal
[36] = system: SW-620 colon
[37] = system: DMS 114 small cell lung
[38] = system: K-562 leukemia
[39] = system: M14 melanoma
[40] = system: UACC-62 melanoma
[41] = system: OVCAR-4 ovarian
[42] = system: SK-MEL-28 melanoma
[43] = system: NCI-H460 lung
[44] = system: SK-MEL-5 melanoma
[45] = system: LXFL 529 NSCLC
[46] = system: OVCAR-8 ovarian
[47] = system: NCI-H522 lung
[48] = system: SNB-19 CNS
[49] = system: CCRF-CEM leukemia
[50] = system: RXF 393 renal
[51] = system: SK-OV-3 ovarian
[52] = system: HCT-116 colon
[53] = system: TK-10 renal
[54] = system: MDA-MB-435
[55] = system: MDA-N
[56] = system: T-47D breast
[57] = system: SNB-75 CNS
[58] = system: DMS 273 small cell lung
[59] = system: HS 578T breast
[60] = system: DU-145 prostate
[61] = system: MCF7 breast
[62] = system: BT-549 breast
[63] = system: MDA-MB-231 breast
[64] = system: HL-60(TB) leukemia
[65] = system: PC-3 prostate
[66] = system: KM20L2 colon

COc1cc(/C=N/N=C(\N)NO)cc(Cl)c1O
> 100 µM: TGI [1] | TGI [2] | TGI [3] | TGI [4] | TGI [5] | TGI [6] | TGI [7] | TGI [8] | TGI [9] | TGI [10] | TGI [11] | TGI [12] | TGI [13] | TGI [14] | TGI [15] | TGI [16] | TGI [17] | TGI [18] | TGI [20] | TGI [21] | TGI [22] | TGI [23] | TGI [24] | TGI [26] | TGI [27] | TGI [28] | TGI [29] | TGI [30] | TGI [31] | TGI [32] | TGI [33] | TGI [34] | TGI [35] | TGI [36] | TGI [37] | TGI [38] | TGI [39] | TGI [40] | TGI [41] | TGI [42] | TGI [43] | TGI [44] | TGI [45] | TGI [46] | TGI [47] | TGI [48] | TGI [49] | TGI [51] | TGI [52]
61.7 µM: TGI [50]
88.5 µM: TGI [19]
81.6 µM: TGI [25]

COc1cccc2c1C(=O)c1c(O)c3c(c(O)c1C2=O)C[C@@](O)(C(=O)CO)C[C@@H]3OC1CC(N)C(O)C(C)O1 (stereo not given in full)
1.7 µM [middle of 4 runs]: TGI [42]
1.87 µM [middle of 4 runs]: TGI [54]
0.55 µM and 0.696 µM: TGI [35]
8.73 µM: TGI [7]
340 nM [middle of 5 runs]: TGI [44]
inactive: outcome [1] | outcome [53] | outcome [2] | outcome [3] | GI50 [54] 0.607 µM | outcome [54] | outcome [4] | outcome [5] | GI50 [6] 0.498 µM | outcome [6] | outcome [8] | outcome [55] | outcome [56] | outcome [9] | outcome [10] | outcome [11] | outcome [12] | outcome [13] | outcome [57] | outcome [15] | outcome [59] | outcome [17] | outcome [18] | outcome [60] | outcome [61] | outcome [20] | GI50 [21] 1.85 µM | outcome [21] | outcome [22] | outcome [23] | outcome [62] | outcome [25] | outcome [26] | outcome [27] | outcome [28] | GI50 [63] 0.949 µM | outcome [63] | outcome [29] | outcome [30] | outcome [31] | outcome [64] | GI50 [32] 3.88 µM | outcome [32] | outcome [33] | outcome [34] | outcome [35] | outcome [36] | outcome [38] | GI50 [39] 0.432 µM | outcome [39] | outcome [65] | outcome [40] | outcome [41] | GI50 [42] 0.593 µM | outcome [42] | outcome [43] | outcome [44] | outcome [46] | outcome [47] | outcome [48] | outcome [49] | outcome [50] | outcome [51] | outcome [52]
1.11 µM and 1.88 µM and 1.41 µM: TGI [55]
active: GI50 [3] 0.105 µM and 0.081 µM and 0.176 µM | GI50 [4] 0.136 µM | GI50 [11] < 0.0221 µM | GI50 [13] 0.219 µM | GI50 [57] 0.245 µM | GI50 [16] 0.0392 µM and 0.0917 µM | GI50 [59] < 0.01 µM | GI50 [17] 0.145 µM | GI50 [60] 169 nM [middle of 4 runs] | GI50 [22] 0.191 µM | GI50 [28] 0.272 µM | GI50 [29] 0.306 µM | GI50 [30] 0.109 µM and 0.0609 µM and 0.106 µM | GI50 [31] 0.21 µM | GI50 [35] 0.0814 µM and 0.195 µM | GI50 [38] 0.218 µM | GI50 [40] 0.149 µM | GI50 [47] 0.193 µM | GI50 [50] 0.402 µM
5.19 µM [middle of 4 runs]: TGI [41]
1.04 µM [middle of 4 runs]: TGI [50]
0.974 µM: TGI [24]
2.45 µM: TGI [58]
15.9 µM: TGI [66]
0.591 µM: TGI [37]
13.6 µM: TGI [19]
628 nM [middle of 5 runs]: TGI [4]
5.37 µM [middle of 4 runs]: TGI [10]
4.83 µM [middle of 4 runs]: TGI [63]

O=c1c(O)c(O)c1=O.[NH2-].[NH2-].[NH2-].[NH2-].[NH2-].[Ru+5]
> 100 µM: TGI [1] | TGI [53] | TGI [3] | TGI [4] | TGI [5] | TGI [6] | TGI [7] | TGI [8] | TGI [9] | TGI [10] | TGI [12] | TGI [13] | TGI [57] | TGI [14] | TGI [58] | TGI [15] | TGI [16] | TGI [18] | TGI [19] | TGI [20] | TGI [21] | TGI [23] | TGI [25] | TGI [27] | TGI [28] | TGI [29] | TGI [30] | TGI [32] | TGI [33] | TGI [34] | TGI [35] | TGI [36] | TGI [38] | TGI [39] | TGI [40] | TGI [41] | TGI [42] | TGI [43] | TGI [45] | TGI [46] | TGI [47] | TGI [48] | TGI [49] | TGI [50] | TGI [66] | TGI [51] | TGI [52]
inactive: GI50 [1] > 100 µM | GI50 [53] > 100 µM | GI50 [3] > 100 µM | GI50 [4] > 100 µM | GI50 [5] > 100 µM | GI50 [6] > 100 µM | GI50 [7] > 100 µM | GI50 [8] > 100 µM | GI50 [9] > 100 µM | GI50 [10] > 100 µM | GI50 [12] > 100 µM | GI50 [13] > 100 µM | GI50 [57] > 100 µM | GI50 [14] > 100 µM | GI50 [58] > 100 µM | GI50 [15] > 100 µM | GI50 [16] > 100 µM | GI50 [18] > 100 µM | GI50 [19] > 100 µM | GI50 [20] > 100 µM | GI50 [21] > 100 µM | GI50 [23] > 100 µM | GI50 [25] > 100 µM | GI50 [27] > 100 µM | GI50 [28] > 100 µM | GI50 [29] > 100 µM | GI50 [30] > 100 µM | GI50 [32] > 100 µM | GI50 [33] > 100 µM | GI50 [34] > 100 µM | GI50 [35] > 100 µM | GI50 [36] > 100 µM | GI50 [38] > 100 µM | GI50 [39] > 100 µM | GI50 [40] > 100 µM | GI50 [41] > 100 µM | GI50 [42] > 100 µM | GI50 [43] > 100 µM | GI50 [45] > 100 µM | GI50 [46] > 100 µM | GI50 [47] > 100 µM | GI50 [48] > 100 µM | GI50 [49] > 100 µM | GI50 [50] > 100 µM | GI50 [66] > 100 µM | GI50 [51] > 100 µM | GI50 [52] > 100 µM

Source: PubChem BioAssay (NCI)
